These results are taken from PMC5225183, “Fingerprinting of neurotoxic compounds using a mouse embryonic stem cell dual luminescence reporter assay” (Archives of Toxicology, 2016).

One may read the AUC as concentration integrated over time. As a reminder, the Cmax is the highest concentration seen after dosing.

Details of series [1]: method as in Supko et al. [1995]. Particulars: mouse, i.v.; ref Supko et al. [1995]; cited from earlier work.
Series [2] concerns plasma protein. The series is described as follows: Plasma protein binding (plasma bound fraction). It is filed as in vitro ADME. Particulars: assumed, no specific indications found. How it is done:
The lipid content and albumin concentrations of the test media N2 and BHK medium were calculated on the basis of the available information provided by the suppliers (Fig. S2A). The data on rat plasma have been adopted from (Verwei et al. [2006]). The original references are (Barber et al. [1990]) for albumin and (DeJongh et al. [1997]) for lipids. Human plasma values were taken from (Gulden and Seibert [2003]). The original data on albumin are from (Lindup [1987]) and for lipids from (Patterson et al. [1988]). Total protein concentrations were calculated based on the assumption that the protein molar mass is similar to the one of albumin (66 kDa). […]
(a) Developmental toxicity (DT)—inducing concentrations were extrapolated from the in vivo study reported in the document by the Australian Therapeutic Goods Administration (Australian Therapeutic Goods Administration [2014]). […] (c) The nominal in vitro concentrations equivalent to the concentration used in vivo were calculated using the value of total protein concentration instead of albumin concentration. […]
(c) The nominal in vitro concentrations equivalent to the concentration used in vivo in rats and humans (Cmax and Cavg) were determined assuming only binding to the specific drug-binding proteins (albumin and/or α1-acid glycoprotein) (Fig. S2D).

Details of series [3]: method as in Australian Therapeutic Goods Administration [2014]. As to conditions: rats, toxic dose level 10 mg/kg/day; ref Australian Therapeutic Goods Administration [2014]; cited from earlier work.
Series [4] concerns neuronal precursor cells derived from human embryonic stem cells. The arrangement: method as in Waldmann et al. [2014]. Particulars: ref Waldmann et al. [2014]; cited from earlier work.

Regarding `COC1=C2C[C@@H](C)C[C@H](OC)[C@H](O)[C@@H](C)/C=C(\C)[C@H](OC(N)=O)[C@@H](OC)/C=C\C=C(/C)C(=O)NC(=CC1=O)C2=O` [Geldanamycin], the “initial volume of distribution” value in series [1] was 0.16 L/kg. In addition, in series [2], the “fb,pl (plasma bound fraction)” value came to 99%.
As to `C[C@]12CC[C@H](O)CC1=CC[C@@H]1[C@@H]2CC[C@]2(C)C(c3cccnc3)=CC[C@@H]12` [Abiraterone], in series [3], the AUC was 34 ng·h/mL and the Cmax was 10.8 ng/mL.
As for `CCCC(CCC)C(=O)O` [Valproic acid], the range of tolerance entry in series [4] is on record as “up to 25 μM”.
